# Reference: PubChem BioAssay AID1963832 (Molecular Pharmacology Branch, DTP, NCI, 2024)
# Test system: 885724-159-R-J1-PDC complex spheroid viability
# Experiment: Anticancer human tumor 885724-159-R-J1-PDC patient-derived pancreatic adenocarcinoma cell line growth inhibition [POLQ]
# Settings: for IC50: curve of first compound; for viability, T/C: stronger effect = lower value
# How it was run: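 PDC + HUVEC + MSC complex spheroids; POLQ inhibitors ± partner drugs; top conc. at/near clinical Cmax, else 10 microM (SN-38 1 microM), half-log dilutions; 37 degrees C, 5% CO2.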
# [1] = second compound 0.0316 µM, first compound 0.0316 µM
# [2] = second compound 0.0316 µM, first compound 0.1 µM
# [3] = second compound 0.0316 µM, first compound 0.316 µM
# [4] = second compound 0.0316 µM, first compound 1 µM
# [5] = second compound 0.0316 µM, first compound 3.16 µM
# [6] = second compound 0.0316 µM, first compound 10 µM
# [7] = second compound 0.1 µM, first compound 0.0316 µM
# [8] = second compound 0.1 µM, first compound 0.1 µM
# [9] = second compound 0.1 µM, first compound 0.316 µM
# [10] = second compound 0.1 µM, first compound 1 µM
# [11] = second compound 0.1 µM, first compound 3.16 µM
# [12] = second compound 0.1 µM, first compound 10 µM
# [13] = second compound 0.316 µM, first compound 0.0316 µM
# [14] = second compound 0.316 µM, first compound 0.1 µM
# [15] = second compound 0.316 µM, first compound 0.316 µM
# [16] = second compound 0.316 µM, first compound 1 µM
# [17] = second compound 0.316 µM, first compound 3.16 µM
# [18] = second compound 0.316 µM, first compound 10 µM
# [19] = second compound 1 µM, first compound 0.0316 µM
# [20] = second compound 1 µM, first compound 0.1 µM
# [21] = second compound 1 µM, first compound 0.316 µM
# [22] = second compound 1 µM, first compound 1 µM
# [23] = second compound 1 µM, first compound 3.16 µM
# [24] = second compound 1 µM, first compound 10 µM
# [25] = second compound 3.16 µM, first compound 0.0316 µM
# [26] = second compound 3.16 µM, first compound 0.1 µM
# [27] = second compound 3.16 µM, first compound 0.316 µM
# [28] = second compound 3.16 µM, first compound 1 µM
# [29] = second compound 3.16 µM, first compound 3.16 µM
# [30] = second compound 3.16 µM, first compound 10 µM
# [31] = second compound 10 µM, first compound 0.0316 µM
# [32] = second compound 10 µM, first compound 0.1 µM
# [33] = second compound 10 µM, first compound 0.316 µM
# [34] = second compound 10 µM, first compound 1 µM
# [35] = second compound 10 µM, first compound 3.16 µM
# [36] = second compound 10 µM, first compound 10 µM
# 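Also: spheroids exposed to compounds for 7 days.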
smiles,measurement,setting,value
O=C(c1cc(Cc2n[nH]c(=O)c3ccccc23)ccc1F)N1CCN(C(=O)C2CC2)CC1 + Nc1ccc(C#CCN(C(=O)Cc2ncc(C(F)(F)F)cc2C(F)(F)F)c2ccc(F)cc2)nn1,IC50,second compound 0.0316 µM,> 10 µM
same,IC50,second compound 0.1 µM,> 10 µM
same,IC50,second compound 0.316 µM,> 10 µM
same,IC50,second compound 1 µM,> 10 µM
same,IC50,second compound 3.16 µM,> 10 µM
same,IC50,second compound 10 µM,> 10 µM
same,"viability, T/C",[1],90.7%
same,"viability, T/C",[2],97.2%
same,"viability, T/C",[3],95.1%
same,"viability, T/C",[4],88.2%
same,"viability, T/C",[5],89.4%
same,"viability, T/C",[6],80.4%
same,"viability, T/C",[7],95%
same,"viability, T/C",[8],94.5%
same,"viability, T/C",[9],85.7%
same,"viability, T/C",[10],96.7%
same,"viability, T/C",[11],84.1%
same,"viability, T/C",[12],77.6%
same,"viability, T/C",[13],85.4%
same,"viability, T/C",[14],94.5%
same,"viability, T/C",[15],100%
same,"viability, T/C",[16],87.8%
same,"viability, T/C",[17],86.2%
same,"viability, T/C",[18],75.8%
same,"viability, T/C",[19],101%
same,"viability, T/C",[20],90.6%
same,"viability, T/C",[21],84.6%
same,"viability, T/C",[22],99%
same,"viability, T/C",[23],88.7%
same,"viability, T/C",[24],84%
same,"viability, T/C",[25],98%
same,"viability, T/C",[26],92%
same,"viability, T/C",[27],84.7%
same,"viability, T/C",[28],82%
same,"viability, T/C",[29],88.1%
same,"viability, T/C",[30],80.8%
same,"viability, T/C",[31],102%
same,"viability, T/C",[32],94.3%
same,"viability, T/C",[33],87.4%
same,"viability, T/C",[34],94.1%
same,"viability, T/C",[35],95.6%
same,"viability, T/C",[36],75.6%
CCc1cc2c(N3CCc4c(cc(Cn5ccnc5)cc4-c4cn(C)nc4C(F)(F)F)C3=O)cc(C)nc2c(OC)n1 + Nc1ccc(C#CCN(C(=O)Cc2ncc(C(F)(F)F)cc2C(F)(F)F)c2ccc(F)cc2)nn1,IC50,second compound 0.0316 µM,> 10 µM
same,IC50,second compound 0.1 µM,> 10 µM
same,IC50,second compound 0.316 µM,> 10 µM
same,IC50,second compound 1 µM,> 10 µM
same,IC50,second compound 3.16 µM,> 10 µM
same,IC50,second compound 10 µM,> 10 µM
same,"viability, T/C",[1],84.1%
same,"viability, T/C",[2],82.4%
same,"viability, T/C",[3],79.4%
same,"viability, T/C",[4],79.3%
same,"viability, T/C",[5],75.8%
same,"viability, T/C",[6],69.2%
same,"viability, T/C",[7],91.8%
same,"viability, T/C",[8],87.3%
same,"viability, T/C",[9],75.8%
same,"viability, T/C",[10],77.1%
same,"viability, T/C",[11],70.9%
same,"viability, T/C",[12],60.3%
same,"viability, T/C",[13],86.7%
same,"viability, T/C",[14],84.8%
same,"viability, T/C",[15],82.2%
same,"viability, T/C",[16],85.2%
same,"viability, T/C",[17],69.5%
same,"viability, T/C",[18],69.7%
same,"viability, T/C",[19],89%
same,"viability, T/C",[20],90.9%
same,"viability, T/C",[21],78.3%
same,"viability, T/C",[22],71.8%
same,"viability, T/C",[23],73.1%
same,"viability, T/C",[24],67.2%
same,"viability, T/C",[25],79.3%
same,"viability, T/C",[26],72%
same,"viability, T/C",[27],78.3%
same,"viability, T/C",[28],85.4%
same,"viability, T/C",[29],75.2%
same,"viability, T/C",[30],69.8%
same,"viability, T/C",[31],88%
same,"viability, T/C",[32],88%
same,"viability, T/C",[33],85.2%
same,"viability, T/C",[34],76.8%
same,"viability, T/C",[35],89.9%
same,"viability, T/C",[36],73%
CCCS(=O)(=O)Nc1ccc(F)c(C(=O)c2c[nH]c3ncc(-c4ccc(Cl)cc4)cc23)c1F + Cc1cccc(N(C)C(=O)C2C(O)CCN2c2nc(C)cc(C(F)(F)F)c2C#N)c1,IC50,second compound 0.0316 µM,> 10 µM
same,IC50,second compound 0.1 µM,> 10 µM
same,IC50,second compound 0.316 µM,> 10 µM
same,IC50,second compound 1 µM,> 10 µM
same,IC50,second compound 3.16 µM,> 10 µM
same,IC50,second compound 10 µM,> 10 µM
same,"viability, T/C",[1],100%
same,"viability, T/C",[2],118%
same,"viability, T/C",[3],116%
same,"viability, T/C",[4],142%
same,"viability, T/C",[5],140%
same,"viability, T/C",[6],94.6%
same,"viability, T/C",[7],99.8%
same,"viability, T/C",[8],111%
same,"viability, T/C",[9],122%
same,"viability, T/C",[10],142%
same,"viability, T/C",[11],158%
same,"viability, T/C",[12],99.4%
same,"viability, T/C",[13],103%
same,"viability, T/C",[14],112%
same,"viability, T/C",[15],135%
same,"viability, T/C",[16],158%
same,"viability, T/C",[17],158%
same,"viability, T/C",[18],100%
same,"viability, T/C",[19],117%
same,"viability, T/C",[20],102%
same,"viability, T/C",[21],123%
same,"viability, T/C",[22],144%
same,"viability, T/C",[23],160%
same,"viability, T/C",[24],97.5%
same,"viability, T/C",[25],108%
same,"viability, T/C",[26],109%
same,"viability, T/C",[27],121%
same,"viability, T/C",[28],155%
same,"viability, T/C",[29],151%
same,"viability, T/C",[30],86.6%
same,"viability, T/C",[31],101%
same,"viability, T/C",[32],105%
same,"viability, T/C",[33],143%
same,"viability, T/C",[34],153%
same,"viability, T/C",[35],137%
same,"viability, T/C",[36],82.9%
